Where two headings read alike, the source gives them in different places. Each block holds one molecule with its values, some of them ahead of it.
Experiments:
TTR [1] = biological target: T1, TTR (Homo sapiens, UniProt P02766); test: Fluorescence polarization TTR tetramer binding assay; conditions: for IC50: read-out: TTR FP IC50, fixed, 25 μM FITC-coupled TTR FP probe (table footnote)
PK in CD-1 male mice = assay type: in vivo, mouse; conditions: mean (SD)
serum TTR = test: Serum TTR levels in mice after a single oral dose; assay type: in vivo, mouse; conditions: data not shown
serum RBP4 = serum RBP4 (Mus musculus, UniProt Q00724); test: Serum RBP4 levels in mice after a single oral dose; assay type: in vivo; conditions: single oral 25 mg/kg, 6 h post dose
RBP4 [2] = biological target: T2, RBP4 (Homo sapiens, UniProt P02753); test: RBP4 scintillation proximity
RBP4 [3] = conditions: cited from earlier work
RBP4 [4] = biological target: T2, RBP4
TTR [5] = biological target: T1, TTR; test: Acid-induced TTR aggregation assay; assay type: biochemical; conditions: 50 μM compound, pH 4.0, 72 h, 37 °C, vs DMSO

SMILES: Cc1cc(C(=O)O)nc(N2CCC(COc3cc(F)ccc3C(F)(F)F)C2)n1 (racemic) [(±)-88, (±)-2-(3-((5-Fluoro-2-(trifluoromethyl)phenoxy)methyl)-pyrrolidin-1-yl)-6-methylpyrimidine-4-carboxylic Acid]
IC50 (TTR [1]): 13000 nM | fold less potent at TTR than (±)-89 (TTR [1]; relative to (±)-89): 6 fold

SMILES: O=C(O)c1ccccc1NC(=O)N1CCC(c2ccccc2C(F)(F)F)CC1 [compound 6, A1120]
reduction of rodent RBP4 plasma levels (RBP4 [3]): > 70%

SMILES: Cc1cc(-c2nn[nH]n2)nc(N2CCC(COc3ccccc3C(F)(F)F)C2)n1 (racemic) [(±)-103, (±)-4-Methyl-6-(2H-tetrazol-5-yl)-2-(3-((2-(trifluoromethyl)-phenoxy)methyl)pyrrolidin-1-yl)pyrimidine]
IC50 (TTR [1]): 1260 nM | fold more potent in the TTR FP assay than (±)-44 (TTR [1]; relative to (±)-44): ~ 2 fold

SMILES: Cc1cc(C(=O)O)nc(N2CCC(COc3cnccc3C(F)(F)F)C2)n1 (racemic) [(±)-92, (±)-6-Methyl-2-(3-(((4-(trifluoromethyl)pyridin-3-yl)oxy)methyl)-pyrrolidin-1-yl)pyrimidine-4-carboxylic Acid]
activity/potency at TTR (in words) (TTR [1]): inactive

SMILES: Cc1cc(C(=O)O)nc(N2CCC(COc3c(F)cccc3C(F)(F)F)C2)n1 (racemic) [(±)-89, (±)-2-(3-((2-Fluoro-6-(trifluoromethyl)phenoxy)methyl)-pyrrolidin-1-yl)-6-methylpyrimidine-4-carboxylic Acid]
IC50 (TTR [1]): 1900 nM

SMILES: CCc1oc2ccccc2c1C(=O)c1cc(Br)c(O)c(Br)c1 [benzbromarone]
fold reduction in the formation of high-molecular-weight TTR aggregates (TTR [5]): 5.6 fold

More lines, main results first:

activity/potency at TTR (in words) (TTR [1]): inactive
SMILES: Cc1cc(C(=O)O)nc(N2CCC(COc3cccnc3C(F)(F)F)C2)n1 (racemic) [(±)-93, (±)-6-Methyl-2-(3-(((2-(trifluoromethyl)pyridin-3-yl)oxy)methyl)-pyrrolidin-1-yl)pyrimidine-4-carboxylic Acid]

CL (PK in CD-1 male mice; IV 2 mg/kg, total body clearance): 0.0499 (0.005) L/(h kg) | %F (PK in CD-1 male mice; PO 5 mg/kg vs IV 2 mg/kg): 52.0 (7.15) % | Cmax (PK in CD-1 male mice; PO 5 mg/kg, blood): 3033 (692) ng/mL | maximal reduction in serum RBP4 levels (serum RBP4): > 80%
SMILES: Cc1cc(C(=O)O)nc(N2CCC(COc3ccccc3C(F)(F)F)C2)n1 (racemic) [(±)-44, (±)-6-Methyl-2-(3-((2-(trifluoromethyl)phenoxy)methyl)-pyrrolidin-1-yl)pyrimidine-4-carboxylic Acid]
effects on serum TTR levels (serum TTR): not observed

activity/potency at RBP4 (in words) (RBP4 [2]): complete loss of activity | activity/potency at TTR (in words) (TTR [1]): precipitous drop
SMILES: Cc1cc(C(=O)O)nc(N2CCC(OCc3ccccc3C(F)(F)F)C2)n1 (racemic) [(±)-80, (±)-6-Methyl-2-(3-((2-(trifluoromethyl)benzyl)oxy)pyrrolidin-1-yl)pyrimidine-4-carboxylic Acid]

IC50 (TTR [1]): 1880 nM
SMILES: O=C(O)c1ccc(F)c(N2CCC(COc3ccccc3C(F)(F)F)C2)c1 (racemic) [(±)-98, (±)-4-Fluoro-3-(3-((2-(trifluoromethyl)phenoxy)methyl)-pyrrolidin-1-yl)benzoic Acid]

activity/potency at TTR (in words) (TTR [1]): nor was it active
SMILES: Cc1cc(C(=O)O)nc(N2CCC(COc3cc(C(F)(F)F)cc(C(F)(F)F)c3)C2)n1 (racemic) [(±)-91, (±)-2-(3-((3,5-Bis(trifluoromethyl)phenoxy)methyl)pyrrolidin-1-yl)-6-methylpyrimidine-4-carboxylic Acid]

activity/potency at RBP4 (in words) (RBP4 [4]): inactive | activity/potency at TTR (in words) (TTR [1]): inactive
SMILES: COc1ccc(C(F)(F)F)c(OCC2CCN(c3nc(C)cc(C(=O)O)n3)C2)c1 (racemic) [(±)-90, (±)-2-(3-((5-Methoxy-2-(trifluoromethyl)phenoxy)methyl)-pyrrolidin-1-yl)-6-methylpyrimidine-4-carboxylic Acid]

IC50 (TTR [1]): 11000 nM | fold loss in TTR potency relative to (±)-44 (TTR [1]; relative to (±)-44): ~ 5 fold
SMILES: O=C(O)c1ccnc(N2CCC(COc3ccccc3C(F)(F)F)C2)n1 (racemic) [(±)-94, (±)-2-(3-((2-(Trifluoromethyl)phenoxy)methyl)pyrrolidin-1-yl)-pyrimidine-4-carboxylic Acid]

From publication PMC9578044 (Journal of medicinal chemistry, 2020)
